{"source": "patent US20190307754A1", "about": "“PDE9 INHIBITORS FOR TREATMENT OF PERIPHERAL DISEASES” (IMARA, INC., priority 2016, published 2019)", "key": {"PDE1": {"test_system": "PDE1", "assay": "PDE1 inhibition assay", "assay_type": "biochemical", "method": "Reactions were initiated by addition of the cyclic nucleotide substrate, and reactions were allowed to proceed for 1 h at room temperature before being terminated through mixing with 20 μL (0.2 mg) yttrium silicate SPA beads (PerkinElmer)."}, "[1]": {"test_system": "K562 erythroleukemic cells", "assay": "cGMP in cultured K562 cells", "assay_type": "cell-based", "conditions": "16 hours", "method": "Hydroxyurea was included as a comparator as it is currently the only FDA approved treatment for this disease (Charache et al., N Engl J Med., 332(20):1317-22. (1995)). One of the proposed mechanisms of action of HU in SCD is that it may generate NO and modulation of intracellular levels of the NO second messenger, cGMP, may represent an effective and cell-specific approach for amplifying intracellular NO-dependent signaling.\nK562 cells were cultured at 37° C. in IMDM® to which the required concentrations of test items or dimethyl sulfoxide (DMSO; negative Control) had been added. Plated cells were maintained at 37° C. for 16 hours at the end of which the amount of cGMP was detected by enzyme immunoassay."}, "in vivo [2]": {"assay": "in vivo", "assay_type": "in vivo", "conditions": "rat, in vivo, 1000 mg/kg; read-out: plasma exposure (AUC0-24)", "text": "(§1) The safety pharmacology assessment of Compound P3.1 included an in vitro hERG assay, neurofunctional and respiratory studies in rats, and a cardiovascular study in beagle dogs.\n(§2) The death was considered test article related. […]"}, "rat [3]": {"test_system": "rat", "assay": "in vivo", "assay_type": "in vivo", "text": "as §1, §2"}, "[4]": {"assay": "Pharmacokinetics in mice and rats (statements for both species)", "assay_type": "in vivo", "conditions": "for half-life: read-out: elimination half-life (converted)", "method": "The PK evaluation of Compound P3.1 included Absorption, Distribution, Metabolism, and Excretion (ADME) studies, as well as assessment for CYP enzyme inhibition.\n(§3) Blood samples were taken at 2 minutes (IV only), then 8, 15, 30 minutes, and 1, 2, 4, 8, and 24 hours after dosing and analyzed for key PK parameters. In the rats, brain samples were taken at 24 hours and analyzed for Compound P3.1. To evaluate the penetration of Compound P3.1 across the blood-brain barrier (BBB), 10 additional rats received IV Compound P3.1 3 mg/kg and plasma and brain concentrations of Compound P3.1 were determined from 2 animals at 15 minutes, 30 minutes and 1, 2, and 4 hours after dosing."}, "[5]": {"assay": "Brain and plasma concentrations after single IV dose in rat", "assay_type": "in vivo", "conditions": "for Mean Plasma/Brain Ratio / Concentration Brain / Concentration Plasma / Plasma/Brain Ratio: 3 mg/kg IV; for Concentration Brain / Concentration Plasma / Plasma/Brain Ratio: individual animals, 3 mg/kg", "method": "as §3"}, "[6]": {"assay": "Plasma protein binding, rat", "assay_type": "in vitro ADME", "conditions": "read-out: mean plasma fraction bound (converted)"}, "[7]": {"assay": "Plasma protein binding, humans", "assay_type": "in vitro ADME", "conditions": "human, read-out: mean plasma fraction bound (converted)"}, "CYP1A2": {"test_system": "CYP1A2", "assay": "CYP induction in human hepatocytes, CYP1A2", "assay_type": "in vitro ADME"}, "CYP3A4": {"test_system": "CYP3A4", "assay": "CYP induction, CYP3A4", "assay_type": "in vitro ADME"}, "[8]": {"assay": "Metabolic stability (intrinsic clearance) in liver microsomes", "assay_type": "in vitro ADME, mouse, rat, dog, monkey, and human"}, "MDR1 (P-gp)": {"molecular_target": "T1, MDR1 (P-gp) (Homo sapiens, UniProt P08183)", "T1 construct": "expressed in transfected cells; host or cells: MDCK-MDR1 cells", "T1 sequence (P08183 whole entry)": "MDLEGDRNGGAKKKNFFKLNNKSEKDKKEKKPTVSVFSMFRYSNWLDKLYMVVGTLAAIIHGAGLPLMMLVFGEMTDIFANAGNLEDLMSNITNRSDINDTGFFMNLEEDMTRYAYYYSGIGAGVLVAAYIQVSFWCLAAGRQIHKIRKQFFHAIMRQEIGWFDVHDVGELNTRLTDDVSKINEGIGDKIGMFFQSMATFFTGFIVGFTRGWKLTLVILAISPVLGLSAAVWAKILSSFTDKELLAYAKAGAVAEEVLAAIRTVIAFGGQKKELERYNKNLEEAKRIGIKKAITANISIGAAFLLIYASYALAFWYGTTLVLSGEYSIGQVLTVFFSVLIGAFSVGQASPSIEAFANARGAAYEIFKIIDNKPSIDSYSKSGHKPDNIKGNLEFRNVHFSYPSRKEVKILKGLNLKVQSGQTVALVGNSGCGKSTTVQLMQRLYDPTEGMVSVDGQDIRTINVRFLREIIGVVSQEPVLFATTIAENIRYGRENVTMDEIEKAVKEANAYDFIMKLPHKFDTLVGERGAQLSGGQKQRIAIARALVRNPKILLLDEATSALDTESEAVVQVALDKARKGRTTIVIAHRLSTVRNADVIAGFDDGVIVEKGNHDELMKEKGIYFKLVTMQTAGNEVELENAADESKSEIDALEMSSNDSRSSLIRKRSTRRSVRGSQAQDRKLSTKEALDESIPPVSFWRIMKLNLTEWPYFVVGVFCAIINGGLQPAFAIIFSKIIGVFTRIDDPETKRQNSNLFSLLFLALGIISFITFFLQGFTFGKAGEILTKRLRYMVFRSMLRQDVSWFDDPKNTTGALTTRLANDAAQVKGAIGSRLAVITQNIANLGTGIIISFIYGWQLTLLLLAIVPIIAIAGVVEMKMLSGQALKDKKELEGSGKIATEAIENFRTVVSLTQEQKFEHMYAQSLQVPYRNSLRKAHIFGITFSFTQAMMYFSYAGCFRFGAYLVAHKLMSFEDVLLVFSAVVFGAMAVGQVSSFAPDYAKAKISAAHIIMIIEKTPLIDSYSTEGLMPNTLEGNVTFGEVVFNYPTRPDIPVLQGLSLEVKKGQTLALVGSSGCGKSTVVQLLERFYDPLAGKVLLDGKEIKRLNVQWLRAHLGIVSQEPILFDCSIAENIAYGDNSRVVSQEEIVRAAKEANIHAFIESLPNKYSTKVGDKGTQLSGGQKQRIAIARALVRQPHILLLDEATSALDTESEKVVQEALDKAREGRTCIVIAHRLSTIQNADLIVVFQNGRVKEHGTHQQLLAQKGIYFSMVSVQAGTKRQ", "assay": "Bi-directional permeability across MDCK-MDR1 cell monolayer", "assay_type": "in vitro ADME", "conditions": "human"}, "[9]": {"molecular_target": "T2, MDR1 (human P-gp) efflux transporter (Homo sapiens, UniProt P08183)", "T2 construct": "expressed in transfected cells; host or cells: MDCK-MDR1 cells", "T2 sequence (P08183 whole entry)": "as above", "assay": "Bi-directional permeability across MDCK-MDR1 cell monolayer", "assay_type": "in vitro ADME"}, "in vivo [10]": {"assay": "in vivo", "conditions": "rat", "method": "(§4) In a 14-day repeat-dose toxicity study in rats, Compound P3.1 was orally administered (gavage) at doses of 0 (vehicle), 50, 200, and 400 mg/kg/day."}, "rat [11]": {"test_system": "rat", "assay": "in vivo", "method": "as §4"}, "rat [12]": {"test_system": "rat", "assay": "Rat female fertility study", "assay_type": "in vivo", "conditions": "female rat, 25, 100, or 200 mg/kg/d oral gavage", "method": "In a rat female fertility study, animal groups were given 0, 25, 100, or 200 mg/kg/d oral gavage of Compound P3.1. No treatment-related clinical signs were observed. […] There were no macroscopic necropsy findings that indicated an effect of Compound P3.1 administration."}, "[13]": {"assay": "Chromosome aberration study", "assay_type": "cell-based", "text": "(§5) The genotoxicity evaluation of Compound P3.1 consisted of a bacterial reverse mutation assay, a chromosome aberration study, and a in vivo rat micronucleus study. Compound P3.1 was negative in all 3 assays."}, "rat [14]": {"test_system": "rat", "assay": "In vivo rat micronucleus study", "text": "as §5"}, "[15]": {"assay": "Stability study in purified water", "assay_type": "physicochemical", "conditions": "approximately 40 mg/mL in purified water, refrigerated and ambient, 8 days", "method": "In another stability study, Compound P3.1 was dissolved at approximately 40 mg/mL of purified water, and evaluated for purity over a period of 8 days. Samples were stored at both refrigerated and ambient conditions, and tested at T=0, Day 2, and Day 8."}, "[16]": {"test_system": "CD34+ derived red blood cells from SCD subjects", "conditions": "10 μM Compound P3.1, 5 days"}}, "note": "Where “and” joins values, the source holds several entries; their conditions need not be identical. Identical values can stand only once. Like-named read-outs stand apart in the source and are kept apart here."}
{"smiles": "C[C@@H]1CN(Cc2ncccn2)C[C@H]1c1cn2c(C3CCOCC3)ncc2c(=O)[nH]1", "note": "(single isomer, unassigned) [Compound P3.1]", "values": [{"measurement": "IC50", "setting": "PDE1", "result": 3000, "unit": "nM"}, {"measurement": "cGMP concentration at 1 μM compared with 100 μM HU", "setting": "[1]; 1 μM", "result": "approximately the same value elicited by 100 μM HU"}, {"measurement": "cGMP level", "setting": "[1]; 10 μM", "result": 12.61, "unit": "pg/mg"}, {"measurement": "effect on cGMP levels", "setting": "[1]", "result": "dose-dependent and statistically significant increases in cGMP levels"}, {"measurement": "AUC(0-t)", "setting": "in vivo [2]", "result": "> 500", "unit": "µg·h/mL"}, {"measurement": "mortality", "setting": "rat [3]; 1000 mg/kg, approximately 4.8 hours after dosing", "result": "One male rat was found dead"}, {"measurement": "exposure relative to anticipated efficacious dose", "setting": "rat [3]; rat, in vivo", "result": "approximately 48 fold"}, {"measurement": "respiratory functions", "setting": "rat [3]; rat, in vivo, po, 1000 mg/kg", "result": "transient increases in respiratory rate and tidal volume"}, {"measurement": "plasma concentrations by 24 hours", "setting": "[4]; 10 mg/kg oral, both species", "result": "below the lower limit of quantification (LLOQ)"}, {"measurement": "Tmax", "setting": "[4]; CD1 (mouse), Sprague Dawley (rat), mouse, rat, plasma, 10 mg/kg, oral, mice and rats, read-out: time of maximum concentration (Tmax)", "result": "0.5 to 1", "unit": "h"}, {"measurement": "half-life", "setting": "[4]; CD1 (mouse), Sprague Dawley (rat), mouse, rat, plasma, oral, intravenous, mice and rats", "result": "< 3", "unit": "h"}, {"measurement": "half-life", "setting": "[4]; CD1 (mouse), Sprague Dawley (rat), mouse, rat, plasma, other: oral and intravenous (both routes), mice and rats", "result": "~3", "unit": "h"}, {"measurement": "plasma concentration by 24 hours", "setting": "[4]; IV, both species", "result": "below the LLOQ"}, {"measurement": "Mean Plasma/Brain Ratio", "setting": "[5]; 0.25 h post dose", "result": 20.2}, {"measurement": "Concentration Brain", "setting": "[5]; 0.25 h post dose", "result": "111 and 112"}, {"measurement": "Concentration Plasma", "setting": "[5]; 0.25 h post dose", "result": "2400 and 2110"}, {"measurement": "Plasma/Brain Ratio", "setting": "[5]; 0.25 h post dose", "result": "21.6 and 18.8"}, {"measurement": "Mean Plasma/Brain Ratio", "setting": "[5]; 0.5 h post dose", "result": 25.1}, {"measurement": "Concentration Brain", "setting": "[5]; 0.5 h post dose", "result": "82.5 and 50.7"}, {"measurement": "Concentration Plasma", "setting": "[5]; 0.5 h post dose", "result": "1790 and 1450"}, {"measurement": "Plasma/Brain Ratio", "setting": "[5]; 0.5 h post dose", "result": "21.7 and 28.6"}, {"measurement": "Mean Plasma/Brain Ratio", "setting": "[5]; 1 h post dose", "result": 23.1}, {"measurement": "Concentration Brain", "setting": "[5]; 1 h post dose", "result": "28.6 and 44.1"}, {"measurement": "Concentration Plasma", "setting": "[5]; 1 h post dose", "result": "647 and 1040"}, {"measurement": "Plasma/Brain Ratio", "setting": "[5]; 1 h post dose", "result": "22.6 and 23.6"}, {"measurement": "Mean Plasma/Brain Ratio", "setting": "[5]; 2 h post dose", "result": 33.1}, {"measurement": "Concentration Brain", "setting": "[5]; 2 h post dose", "result": "8.88 and 5.34"}, {"measurement": "Concentration Plasma", "setting": "[5]; 2 h post dose", "result": "245 and 206"}, {"measurement": "Plasma/Brain Ratio", "setting": "[5]; 2 h post dose", "result": "27.6 and 38.6"}, {"measurement": "Concentration Plasma", "setting": "[5]; 4 h post dose", "result": "59.8 and 107"}, {"measurement": "brain concentration at 4 hours postdose", "setting": "[5]; IV dosing, 4 hours postdose", "result": "no longer detectable in the brain"}, {"measurement": "fraction unbound", "setting": "[6]", "result": 0.748}, {"measurement": "fraction unbound", "setting": "[7]", "result": 0.686}, {"measurement": "induction of CYP1A2", "setting": "CYP1A2", "result": "no potential for induction"}, {"measurement": "induction of CYP3A4", "setting": "CYP3A4", "result": "potential for induction"}, {"measurement": "metabolic stability", "setting": "[8]; mouse, rat, dog, monkey, and human liver microsomes", "result": "highly stable"}, {"measurement": "intrinsic clearance in liver microsomes", "setting": "[8]; presence or absence of NADPH", "result": "minimal intrinsic clearance"}, {"measurement": "efflux ratio", "setting": "MDR1 (P-gp)", "result": 180}, {"measurement": "MDR1 efflux transporter substrate", "setting": "[9]", "result": "strong MDR1 (human P-gp) efflux transporter substrate"}, {"measurement": "NOAEL at 14 days", "setting": "in vivo [10]; female", "result": "50 mg/kg/day and 50 mg/kg"}, {"measurement": "NOAEL at 14 days", "setting": "in vivo [10]; male", "result": "200 mg/kg/day and 200 mg/kg"}, {"measurement": "AUC(0-t)", "setting": "in vivo [10]; 400 mg/kg/day, plasma exposure (AUC0-24)", "result": "> 354", "unit": "µg·h/mL"}, {"measurement": "exposure relative to anticipated efficacious dose", "setting": "rat [11]", "result": "> 10", "unit": "fold"}, {"measurement": "exposure vs dose", "setting": "rat [11]", "result": "increased proportionally with dose"}, {"measurement": "findings at highest dose", "setting": "rat [11]; 400 mg/kg/day", "result": "reductions in body weight, weight gain, and food intake, and premature deaths"}, {"measurement": "early embryonic development", "setting": "rat [12]", "result": "no adverse effect"}, {"measurement": "pre- or post-implantation loss", "setting": "rat [12]", "result": "no effect"}, {"measurement": "genotoxicity, chromosome aberration study", "setting": "[13]", "result": "negative"}, {"measurement": "genotoxicity, in vivo rat micronucleus study", "setting": "rat [14]", "result": "negative"}, {"measurement": "stability: purity and appearance of solution", "setting": "[15]", "result": "No significant change to the purity of the compound or appearance of the solution"}, {"measurement": "amount of HbF within cells (mean MFI)", "setting": "[16]", "result": "10,840"}, {"measurement": "mean MFI of HbF relative to controls", "setting": "[16]", "result": 145, "unit": "%"}, {"measurement": "percentage of HbF positive CD36+ cells (mean)", "setting": "[16]; 5 SCD subjects", "result": 24.6, "unit": "%"}]}
